Results on seven molecules are retold here after PubChem BioAssay (NCI).

Among the test systems are ACHN renal; SK-MEL-5 melanoma; SNB-75 CNS; NCI-H522 lung; MCF7 breast; CCRF-CEM leukemia; RPMI-8226 leukemia; A498 renal; OVCAR-5 ovarian; HL-60(TB) leukemia.
Holding throughout (assay): inhibition of tumour cell growth, NCI panel, 48 h

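48-hour exposure; five concentrations; linearly interpolated endpoints. The concentration for 50% growth inhibition is given as GI50. TGI denotes the concentration required for complete inhibition of growth.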

On to `CCOC(=O)c1ccccc1SC(C[N+](=O)[O-])c1ccccc1` (stereo not given), for which the GI50 was 2.02 µM with ACHN renal; 5.09 µM with SK-MEL-5 melanoma; 12.7 µM with SNB-75 CNS; 11 µM with NCI-H522 lung; 1.07 µM in the assay with MCF7 breast; 4.64 µM in the assay on CCRF-CEM leukemia. Also, the GI50 in the assay with RPMI-8226 leukemia is 2.44 µM; in the assay on A498 renal it was 3.63 µM; in the assay with OVCAR-5 ovarian, 12.3 µM; in the assay with HL-60(TB) leukemia, 5.96 µM. Also, the TGI with ACHN renal turned out to be 4.51 µM; with SK-MEL-5 melanoma, 17.4 µM; with SNB-75 CNS, 41.6 µM; with NCI-H522 lung it was 23.3 µM; in the assay on MCF7 breast, 4.12 µM; in the assay on CCRF-CEM leukemia, 36.2 µM. For the same molecule, the TGI with RPMI-8226 leukemia is 5.53 µM; in the assay on A498 renal, 16 µM; with OVCAR-5 ovarian, 25.3 µM; in the assay on HL-60(TB) leukemia, 27.9 µM.
As to `O=C(Nc1ccc(Nc2ccncc2)cc1)c1ccc(Nc2ccnc3ccc([N+](=O)[O-])cc23)cc1[N+](=O)[O-]`, the GI50 was 15.5 µM with ACHN renal; 25.8 µM in the assay on SK-MEL-5 melanoma; 16 µM with SNB-75 CNS; 21.9 µM in the assay with NCI-H522 lung; 4.73 µM in the assay on MCF7 breast; 18.6 µM with CCRF-CEM leukemia. The GI50 with RPMI-8226 leukemia is 12.6 µM; in the assay with A498 renal, 24.2 µM; with OVCAR-5 ovarian, 38 µM; in the assay with HL-60(TB) leukemia, 25 µM. Moreover, the TGI in the assay on ACHN renal is 37.2 µM; with SK-MEL-5 melanoma, greater than 100 µM; in the assay on SNB-75 CNS, 50.6 µM; with NCI-H522 lung, 68.6 µM; in the assay with MCF7 breast, greater than 100 µM; with CCRF-CEM leukemia it was greater than 50.6 µM. The TGI was 55.3 µM in the assay with RPMI-8226 leukemia, greater than 62.2 µM in the assay with A498 renal, greater than 88.4 µM with OVCAR-5 ovarian and greater than 58.7 µM with HL-60(TB) leukemia.
For `Cc1ccc2nc3c(n2c1)C(=O)C(=O)c1ccccc1-3`, the GI50 with ACHN renal is 0.269 µM; in the assay on SK-MEL-5 melanoma it was 0.112 µM; in the assay with SNB-75 CNS, 0.266 µM; in the assay with NCI-H522 lung it was 0.216 µM; with MCF7 breast, 0.14 µM; with CCRF-CEM leukemia it was 0.429 µM. In addition, the GI50 with RPMI-8226 leukemia was 0.18 µM; with A498 renal, 1.37 µM; in the assay with OVCAR-5 ovarian it was 0.202 µM; in the assay with HL-60(TB) leukemia it was 0.17 µM. Further, the TGI in the assay with ACHN renal was determined as 0.88 µM; with SK-MEL-5 melanoma, 0.244 µM; in the assay with SNB-75 CNS, 0.618 µM; in the assay with NCI-H522 lung it was 0.538 µM; with MCF7 breast, 0.308 µM; in the assay with CCRF-CEM leukemia it was 3.37 µM. Also, the TGI amounted to 0.717 µM in the assay on RPMI-8226 leukemia, 2.71 µM with A498 renal, 0.391 µM in the assay on OVCAR-5 ovarian and 0.602 µM with HL-60(TB) leukemia.
For `CC[C@H](C)[C@H](NC(=O)NC(C)(C)C)C(=O)N(C)[C@H](C[C@@H](OC(C)=O)c1nc(C(=O)N[C@@H](Cc2ccccc2)C[C@H](C)C(=O)OC)cs1)C(C)C`, the GI50 in the assay with ACHN renal was 1.15 µM; with SK-MEL-5 melanoma, 0.139 µM; in the assay with SNB-75 CNS, 0.293 µM; with NCI-H522 lung it was 0.107 µM; with MCF7 breast, 0.123 µM; with CCRF-CEM leukemia, 0.718 µM. Further, the GI50 was 0.263 µM with RPMI-8226 leukemia, 0.154 µM in the assay with A498 renal, 2.4 µM with OVCAR-5 ovarian and 0.374 µM with HL-60(TB) leukemia. In addition, the TGI in the assay on ACHN renal was greater than 25 µM; in the assay with SK-MEL-5 melanoma, 0.604 µM; with SNB-75 CNS it was greater than 25 µM; in the assay with NCI-H522 lung it was 0.765 µM; with MCF7 breast it was greater than 25 µM; in the assay on CCRF-CEM leukemia, greater than 25 µM. The TGI was 4.2 µM in the assay on RPMI-8226 leukemia, 4.31 µM with A498 renal, greater than 25 µM with OVCAR-5 ovarian and 1.56 µM in the assay on HL-60(TB) leukemia.
In the case of `O=C1/C(=C/c2ccc(Cl)cc2)CN(C(=O)CCN2CCC(=NO)CC2)C/C1=C\c1ccc(Cl)cc1`, the GI50 is 0.557 µM in the assay on ACHN renal; 1.66 µM in the assay with SK-MEL-5 melanoma; 1.31 µM in the assay with SNB-75 CNS; 0.731 µM in the assay with NCI-H522 lung; 0.284 µM in the assay on MCF7 breast; 0.317 µM in the assay on CCRF-CEM leukemia. Further, the GI50 with RPMI-8226 leukemia is 0.157 µM; with A498 renal it was 1.15 µM; with OVCAR-5 ovarian, 1.36 µM; in the assay with HL-60(TB) leukemia, 1.37 µM. Also, the TGI in the assay with ACHN renal was 1.56 µM; in the assay with SK-MEL-5 melanoma it was 3.1 µM; with SNB-75 CNS it was 2.61 µM; with NCI-H522 lung, 2.29 µM; with MCF7 breast it was 1.59 µM; in the assay on CCRF-CEM leukemia, greater than 22.3 µM. Further, the TGI in the assay on RPMI-8226 leukemia amounted to 0.552 µM; in the assay on A498 renal, 2.41 µM; in the assay with OVCAR-5 ovarian it was 2.85 µM; with HL-60(TB) leukemia, 4.9 µM.
`O=C(c1ccco1)c1nc2cc(C(F)(F)F)ccc2[n+]([O-])c1C(F)(F)F`: the GI50 is 47.1 µM with ACHN renal; 33.3 µM with SK-MEL-5 melanoma; 23 µM in the assay with SNB-75 CNS; 34.1 µM in the assay on NCI-H522 lung; 6.57 µM in the assay on MCF7 breast; 60.2 µM with CCRF-CEM leukemia. In addition, the GI50 in the assay with RPMI-8226 leukemia is 20.3 µM; in the assay with A498 renal, 39.3 µM; in the assay on OVCAR-5 ovarian, 31.5 µM; with HL-60(TB) leukemia, 78.1 µM. In addition, the TGI with ACHN renal is greater than 100 µM; in the assay on SK-MEL-5 melanoma it was greater than 100 µM; in the assay on SNB-75 CNS, 90.9 µM; in the assay on NCI-H522 lung, greater than 100 µM; in the assay on MCF7 breast, greater than 100 µM; in the assay with CCRF-CEM leukemia it was greater than 100 µM. Further, the TGI in the assay with RPMI-8226 leukemia, in the assay on A498 renal, with OVCAR-5 ovarian and with HL-60(TB) leukemia was greater than 100 µM each time.
On to `CC(C)C[CH2][Ge]([CH2]CC(C)C)([CH2]CC(C)C)[CH2]CC(C)C`, for which the GI50 with ACHN renal, in the assay with SK-MEL-5 melanoma, in the assay with SNB-75 CNS, in the assay on NCI-H522 lung, in the assay on MCF7 breast and in the assay on CCRF-CEM leukemia was greater than 100 µM each time. Moreover, the GI50 in the assay on RPMI-8226 leukemia, in the assay with A498 renal, in the assay with OVCAR-5 ovarian and with HL-60(TB) leukemia was greater than 100 µM in each case. The TGI with ACHN renal, with SK-MEL-5 melanoma, with SNB-75 CNS, in the assay with NCI-H522 lung, with MCF7 breast and with CCRF-CEM leukemia was greater than 100 µM each time. Moreover, the TGI with RPMI-8226 leukemia, in the assay on A498 renal, with OVCAR-5 ovarian and with HL-60(TB) leukemia was greater than 100 µM throughout.
